Measurements taken from ChEMBL document CHEMBL5505964, “HDAC/NAMPT dual inhibitors overcome initial drug-resistance in p53-null leukemia cells” (Eur J Med Chem, 2024).
Blank lines part the entries; values can stand above or below the molecule they belong to.

Legend:
[1] = system: MV4-11; test: cells; type: functional, cell-based; conditions: Homo sapiens; for IC50: MV4-11, 48 h; for GI50: MV4-11, time 48 hrs
[2] = target: T1, Nicotinamide phosphoribosyltransferase (Homo sapiens, UniProt P43490); test: Inhibition of N-terminal GST-tagged human recombinant NAMPT (2 to 491 residues) expressed in Escherichia coli expression system incubated for 30 mins by fluorescence based analysis
T1 sequence (P43490 whole entry, the tested form may be a part): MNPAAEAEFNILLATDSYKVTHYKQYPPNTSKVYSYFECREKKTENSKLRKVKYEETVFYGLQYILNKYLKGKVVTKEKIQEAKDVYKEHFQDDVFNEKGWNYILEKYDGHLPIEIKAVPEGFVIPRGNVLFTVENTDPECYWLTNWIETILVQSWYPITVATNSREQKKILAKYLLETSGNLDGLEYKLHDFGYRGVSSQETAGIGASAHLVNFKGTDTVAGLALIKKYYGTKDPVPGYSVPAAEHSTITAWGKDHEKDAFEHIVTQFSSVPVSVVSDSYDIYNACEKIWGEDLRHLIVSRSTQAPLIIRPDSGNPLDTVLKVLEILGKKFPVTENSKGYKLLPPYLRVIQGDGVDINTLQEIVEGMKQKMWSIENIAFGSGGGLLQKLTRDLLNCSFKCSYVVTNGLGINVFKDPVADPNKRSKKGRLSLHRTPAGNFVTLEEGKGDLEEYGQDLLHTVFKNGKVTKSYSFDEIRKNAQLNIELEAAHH

[3] = target: Histone deacetylase 2 (Homo sapiens, UniProt Q92769); test: biochemical; type: cell-based, Sf9
Sequence of Histone deacetylase 2 (Q92769 whole entry, the tested form may be a part): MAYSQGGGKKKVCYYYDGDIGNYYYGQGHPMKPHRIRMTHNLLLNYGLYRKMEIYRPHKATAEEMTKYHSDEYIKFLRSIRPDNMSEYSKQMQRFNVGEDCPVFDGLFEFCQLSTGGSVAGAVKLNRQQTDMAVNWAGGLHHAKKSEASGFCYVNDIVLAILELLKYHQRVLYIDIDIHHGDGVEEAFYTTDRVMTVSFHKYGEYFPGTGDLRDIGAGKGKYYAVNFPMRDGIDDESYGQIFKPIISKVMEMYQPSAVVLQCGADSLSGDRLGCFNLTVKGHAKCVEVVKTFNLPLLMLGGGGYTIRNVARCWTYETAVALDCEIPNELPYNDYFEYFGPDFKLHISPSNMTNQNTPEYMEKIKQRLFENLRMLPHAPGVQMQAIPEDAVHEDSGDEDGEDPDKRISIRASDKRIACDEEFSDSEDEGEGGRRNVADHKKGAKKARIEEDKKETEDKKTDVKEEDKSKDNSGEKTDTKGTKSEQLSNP

[4] = target: Histone deacetylase 3/Nuclear receptor corepressor 2 (HDAC3/NCoR2) (Homo sapiens, UniProt O15379); test: (§1) Inhibition of C-terminal His-tagged human HDAC3 (1 to 428 residues)/N-terminal GST tagged human NCOR2 (395 to 489 residues) expressed in baculovirus-infected Sf9 cells using Boc-Lys-(acetyl)-AMC as substrate preincubated with enzyme for 1 hr followed by substrate addition and measured after 2 hrs by fluorescence analysis
Sequence of Histone deacetylase 3/Nuclear receptor corepressor 2 (HDAC3/NCoR2) (O15379 whole entry, the tested form may be a part): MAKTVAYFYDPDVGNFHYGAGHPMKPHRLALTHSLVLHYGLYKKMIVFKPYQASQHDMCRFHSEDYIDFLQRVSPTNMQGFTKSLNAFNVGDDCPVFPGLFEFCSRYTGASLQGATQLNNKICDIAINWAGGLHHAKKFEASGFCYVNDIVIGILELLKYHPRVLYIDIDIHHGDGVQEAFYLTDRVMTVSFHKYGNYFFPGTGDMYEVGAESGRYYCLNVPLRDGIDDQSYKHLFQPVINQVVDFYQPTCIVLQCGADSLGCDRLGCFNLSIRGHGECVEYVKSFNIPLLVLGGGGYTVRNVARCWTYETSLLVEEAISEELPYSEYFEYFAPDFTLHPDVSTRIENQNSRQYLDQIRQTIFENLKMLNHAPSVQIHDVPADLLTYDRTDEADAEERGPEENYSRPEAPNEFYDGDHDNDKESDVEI
Sequence of Histone deacetylase 3/Nuclear receptor corepressor 2 (HDAC3/NCoR2) (Q9Y618 whole entry, further chain, the tested form may be a part): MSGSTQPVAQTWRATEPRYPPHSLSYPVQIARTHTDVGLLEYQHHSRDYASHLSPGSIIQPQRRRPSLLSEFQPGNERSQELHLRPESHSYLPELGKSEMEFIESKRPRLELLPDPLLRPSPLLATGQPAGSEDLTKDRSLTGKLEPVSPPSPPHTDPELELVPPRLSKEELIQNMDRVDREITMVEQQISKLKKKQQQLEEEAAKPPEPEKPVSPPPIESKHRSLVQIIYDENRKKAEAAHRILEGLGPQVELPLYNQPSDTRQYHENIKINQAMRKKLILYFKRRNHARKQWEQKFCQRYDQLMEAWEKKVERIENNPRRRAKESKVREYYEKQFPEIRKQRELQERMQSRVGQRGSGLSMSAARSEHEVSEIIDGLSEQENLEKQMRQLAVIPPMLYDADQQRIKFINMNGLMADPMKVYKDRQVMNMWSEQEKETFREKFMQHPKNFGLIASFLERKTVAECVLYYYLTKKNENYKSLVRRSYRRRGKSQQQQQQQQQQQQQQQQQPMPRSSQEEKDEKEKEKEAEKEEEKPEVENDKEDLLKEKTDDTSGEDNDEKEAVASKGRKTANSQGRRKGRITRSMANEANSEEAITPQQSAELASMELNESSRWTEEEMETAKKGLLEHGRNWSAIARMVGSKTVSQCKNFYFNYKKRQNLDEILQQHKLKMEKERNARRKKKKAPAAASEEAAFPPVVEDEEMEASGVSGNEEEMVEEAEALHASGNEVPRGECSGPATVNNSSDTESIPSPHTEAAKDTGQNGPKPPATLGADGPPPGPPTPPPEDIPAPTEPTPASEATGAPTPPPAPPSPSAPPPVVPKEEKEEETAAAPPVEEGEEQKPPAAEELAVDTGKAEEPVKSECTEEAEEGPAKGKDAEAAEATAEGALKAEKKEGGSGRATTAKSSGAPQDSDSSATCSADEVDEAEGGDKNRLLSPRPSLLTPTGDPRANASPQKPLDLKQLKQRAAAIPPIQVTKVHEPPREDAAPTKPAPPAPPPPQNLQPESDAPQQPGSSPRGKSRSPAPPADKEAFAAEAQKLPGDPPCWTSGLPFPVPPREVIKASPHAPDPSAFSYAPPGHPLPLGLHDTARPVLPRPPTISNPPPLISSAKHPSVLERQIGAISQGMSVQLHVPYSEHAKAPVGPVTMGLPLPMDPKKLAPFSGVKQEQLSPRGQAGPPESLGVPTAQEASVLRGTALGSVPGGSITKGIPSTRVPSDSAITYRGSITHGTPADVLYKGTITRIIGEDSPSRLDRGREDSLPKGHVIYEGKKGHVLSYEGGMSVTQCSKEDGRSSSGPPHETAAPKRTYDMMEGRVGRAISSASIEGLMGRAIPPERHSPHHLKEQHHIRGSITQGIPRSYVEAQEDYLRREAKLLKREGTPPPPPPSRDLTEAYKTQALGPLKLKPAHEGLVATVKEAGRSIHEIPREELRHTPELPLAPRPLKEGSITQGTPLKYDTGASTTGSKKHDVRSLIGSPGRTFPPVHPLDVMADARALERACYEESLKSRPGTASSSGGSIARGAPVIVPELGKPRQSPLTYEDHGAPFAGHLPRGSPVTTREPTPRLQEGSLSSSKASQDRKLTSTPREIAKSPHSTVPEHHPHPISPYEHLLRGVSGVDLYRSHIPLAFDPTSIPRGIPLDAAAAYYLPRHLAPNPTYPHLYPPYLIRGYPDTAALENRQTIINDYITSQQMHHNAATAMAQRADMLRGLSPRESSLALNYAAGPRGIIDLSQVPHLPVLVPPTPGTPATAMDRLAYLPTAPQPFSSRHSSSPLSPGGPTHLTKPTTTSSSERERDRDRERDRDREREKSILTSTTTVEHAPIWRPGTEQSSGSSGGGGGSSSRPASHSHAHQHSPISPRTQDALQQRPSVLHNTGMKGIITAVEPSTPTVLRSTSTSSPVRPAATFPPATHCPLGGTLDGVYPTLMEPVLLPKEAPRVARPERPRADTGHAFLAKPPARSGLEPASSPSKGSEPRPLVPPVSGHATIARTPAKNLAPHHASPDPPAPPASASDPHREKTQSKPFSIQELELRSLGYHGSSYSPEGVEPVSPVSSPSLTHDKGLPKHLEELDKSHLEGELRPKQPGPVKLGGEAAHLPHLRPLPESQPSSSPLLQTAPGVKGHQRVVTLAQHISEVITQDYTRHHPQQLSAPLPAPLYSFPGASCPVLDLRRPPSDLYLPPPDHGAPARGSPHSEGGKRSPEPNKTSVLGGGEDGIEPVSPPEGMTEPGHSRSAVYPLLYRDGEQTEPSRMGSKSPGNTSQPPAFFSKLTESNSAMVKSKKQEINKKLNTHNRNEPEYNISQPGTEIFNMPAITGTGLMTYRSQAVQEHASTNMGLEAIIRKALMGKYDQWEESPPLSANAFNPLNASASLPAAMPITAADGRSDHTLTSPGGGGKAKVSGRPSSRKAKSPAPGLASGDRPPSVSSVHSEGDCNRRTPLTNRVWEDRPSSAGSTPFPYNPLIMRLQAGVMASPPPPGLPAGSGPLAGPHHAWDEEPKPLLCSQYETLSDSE

[5] = target: Histone deacetylase 1 (Homo sapiens, UniProt Q13547); test: as §1, with “6XHis-tagged/FLAG-tagged full length” for “His-tagged”, “recombinant HDAC1” for “HDAC3”, “482” for “428 residues)/N-terminal GST tagged human NCOR2 (395 to 489”
Sequence of Histone deacetylase 1 (Q13547 whole entry): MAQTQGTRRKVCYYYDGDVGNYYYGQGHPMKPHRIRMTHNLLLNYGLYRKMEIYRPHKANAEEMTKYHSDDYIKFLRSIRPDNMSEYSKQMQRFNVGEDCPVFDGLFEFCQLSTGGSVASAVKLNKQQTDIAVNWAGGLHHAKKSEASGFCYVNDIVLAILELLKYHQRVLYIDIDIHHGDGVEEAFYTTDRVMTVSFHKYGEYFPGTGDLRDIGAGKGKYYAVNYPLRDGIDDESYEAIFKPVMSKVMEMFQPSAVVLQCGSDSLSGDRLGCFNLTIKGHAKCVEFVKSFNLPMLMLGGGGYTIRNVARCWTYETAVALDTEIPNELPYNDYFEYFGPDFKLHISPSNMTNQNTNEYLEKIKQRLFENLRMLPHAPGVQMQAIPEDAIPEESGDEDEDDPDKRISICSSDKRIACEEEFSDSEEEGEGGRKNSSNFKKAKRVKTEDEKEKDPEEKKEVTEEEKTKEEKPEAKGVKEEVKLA

[6] = target: T1, Nicotinamide phosphoribosyltransferase; test: Inhibition of NAMPT (unknown origin)
[7] = system: HL-60; test: Antiproliferative activity against p53-null human HL-60 cells assessed as inhibition of cell growth incubated for 48 hrs by resazurin dye based fluorescence analysis; type: functional
[8] = system: Kasumi 1; test: Antiproliferative activity against human Kasumi 1 cells harboring wild type p53 assessed as induction of cell death incubated for 48 hrs by resazurin dye based fluorescence analysis; type: functional; conditions: read-out: LD50 (the source's name)
[9] = Antiproliferative activity against p53-null human MONO-MAC-1 cells assessed as induction of cell death incubated for 48 hrs by resazurin dye based fluorescence analysis; type: functional; conditions: read-out: LD50 (the source's name)
[10] = Antiproliferative activity against p53-null human PL-21 cells assessed as induction of cell death incubated for 48 hrs by resazurin dye based fluorescence analysis; type: functional; conditions: read-out: LD50 (the source's name)
[11] = system: NB-4; test: Antiproliferative activity against p53-null human NB4 cells assessed as induction of cell death incubated for 48 hrs by resazurin dye based fluorescence analysis; type: functional; conditions: read-out: LD50 (the source's name)
[12] = system: HL-60; test: Antiproliferative activity against p53-null human HL-60 cells assessed as induction of cell death incubated for 48 hrs in presence of methyl-4-((1H-pyrrolo[3,2-c]pyridine-2-carboxamido)methyl)benzoate by resazurin dye based fluorescence analysis; type: functional; conditions: read-out: LD50 (the source's name)
[13] = system: HL-60; test: Antiproliferative activity against p53-null human HL-60 cells assessed as induction of cell death incubated for 48 hrs in presence of N-(4-(1-benzoylpiperidin-4-yl)butyl)-3-(pyridin-3-yl)acrylamide by resazurin dye based fluorescence analysis; type: functional; conditions: read-out: LD50 (the source's name)

SMILES: CCCNNC(=O)CCCCCCNC(=O)c1cc2cnccc2[nH]1
IC50 [1]: 87.7 nM

SMILES: CCCNNC(=O)c1ccc(CNC(=O)/C=C/c2ccccn2)cc1
IC50 [2]: > 20000 nM
IC50 [1]: 85.2 nM

SMILES: CCCNNC(=O)c1ccc(CNC(=O)c2cc3cnccc3o2)cc1
IC50 [3]: 19.4 nM
IC50 [4]: 1.82 nM
IC50 [5]: 5.5 nM

SMILES: CCCNNC(=O)CCCCCCNC(=O)/C=C/c1cccnc1
IC50 [2]: 261 nM
IC50 [1]: 434 nM

SMILES: CCCNNC(=O)c1ccc(CNC(=O)c2cc3ccccc3[nH]2)cc1
CC50 [8]: 284 nM
GI50 [7]: 69.6 nM
CC50 [9]: > 100000 nM
CC50 [10]: > 100000 nM
GI50 [1]: 37.3 nM
CC50 [11]: > 100000 nM

SMILES: CCCNNC(=O)c1ccc(CNC(=O)/C=C/c2ccccc2)cc1
CC50 [8]: > 100000 nM
GI50 [7]: 121 nM
CC50 [9]: > 100000 nM
CC50 [12]: 67.8 nM
CC50 [10]: > 100000 nM
CC50 [13]: 614 nM
GI50 [1]: 16 nM
CC50 [11]: > 100000 nM

SMILES: CCCNNC(=O)c1ccc(NC(=O)CCCCCCCNC(=O)/C=C/c2cccnc2)cc1
IC50 [2]: > 20000 nM
IC50 [1]: 174 nM

SMILES: O=C(CCCCCCC(=O)Nc1ccccc1)NO [VORINOSTAT]
IC50 [2]: > 20000 nM

SMILES: CCCNNC(=O)c1ccc(CNC(=O)c2cc3ccccc3o2)cc1
IC50 [4]: 0.43 nM

SMILES: CCCNNC(=O)c1ccc(NC(=O)CCCCCCNC(=O)/C=C/c2cccnc2)cc1
IC50 [2]: > 20000 nM
IC50 [1]: 52.4 nM

SMILES: CCCNNC(=O)CCNC(=O)/C=C/c1cccnc1
IC50 [3]: > 10000 nM
IC50 [2]: > 20000 nM
IC50 [1]: > 50000 nM

More lines, now with the values ahead:

IC50 [2]: 261 nM
IC50 [1]: 2240 nM
SMILES: CCCNNC(=O)c1ccc(CNC(=O)CCCCCCNC(=O)/C=C/c2cccnc2)cc1

IC50 [4]: 2.01 nM
SMILES: CCCNNC(=O)c1ccc(CNC(=O)c2cc3cnccc3s2)cc1

IC50 [6]: 5 nM
SMILES: Cc1ncsc1C(=O)N1CCC(CCCCNC(=O)c2cc3cnccc3[nH]2)CC1

IC50 [3]: > 10000 nM
GI50 [7]: 12.1 nM
IC50 [4]: > 10000 nM
IC50 [5]: > 10000 nM
IC50 [1]: 15.3 nM
SMILES: O=C(/C=C/c1cccnc1)NCCCCC1CCN(C(=O)c2ccccc2)CC1 [DAPORINAD]

IC50 [2]: > 20000 nM
IC50 [1]: 67.7 nM
SMILES: CCCNNC(=O)c1ccc(CNC(=O)/C=C/c2ccncc2)cc1

IC50 [2]: 489 nM
IC50 [1]: 2190 nM
SMILES: CCCNNC(=O)c1ccc(CNC(=O)CCCCCCCNC(=O)/C=C/c2cccnc2)cc1

IC50 [2]: > 20000 nM
IC50 [1]: 901 nM
SMILES: CCCNNC(=O)CCCCNC(=O)/C=C/c1cccnc1

IC50 [2]: > 20000 nM
IC50 [1]: 667 nM
SMILES: CCCNNC(=O)CCCCCCCNC(=O)/C=C/c1cccnc1

IC50 [3]: > 20000 nM
IC50 [4]: > 20000 nM
IC50 [5]: > 20000 nM
IC50 [2]: 6870 nM
IC50 [1]: > 50000 nM
SMILES: COC(=O)c1ccc(CNC(=O)c2cc3cnccc3[nH]2)cc1
